According to patent US20030095958A1, “Inhibitors of bace” (priority 2001, published 2003):
pKi: −log10 of the molar value.

Molecular target: BACE (Homo sapiens, UniProt P56817)
Experiment: Ki Determination for the Inhibition of BACE (FS-1 peptide fluorescence cleavage assay)
Type: biochemical
Details: apparent Ki; 50 nM BACE, 10 μM FS-1 substrate, 0.1M sodium acetate pH 4.5
Summary of the method: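 Apparent Ki values derive from fitting fluorescence progress data (355 nm excitation, 495 nm emission) of FS-1 peptide cleavage to an integrated competitive tight-binding model. Reactions held 50 nM BACE, 10 μM substrate and inhibitor in 2% DMSO, pH 4.5 acetate buffer, with a 15 min enzyme-compound preincubation at room temperature.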

Chain of BACE (P56817 46-501): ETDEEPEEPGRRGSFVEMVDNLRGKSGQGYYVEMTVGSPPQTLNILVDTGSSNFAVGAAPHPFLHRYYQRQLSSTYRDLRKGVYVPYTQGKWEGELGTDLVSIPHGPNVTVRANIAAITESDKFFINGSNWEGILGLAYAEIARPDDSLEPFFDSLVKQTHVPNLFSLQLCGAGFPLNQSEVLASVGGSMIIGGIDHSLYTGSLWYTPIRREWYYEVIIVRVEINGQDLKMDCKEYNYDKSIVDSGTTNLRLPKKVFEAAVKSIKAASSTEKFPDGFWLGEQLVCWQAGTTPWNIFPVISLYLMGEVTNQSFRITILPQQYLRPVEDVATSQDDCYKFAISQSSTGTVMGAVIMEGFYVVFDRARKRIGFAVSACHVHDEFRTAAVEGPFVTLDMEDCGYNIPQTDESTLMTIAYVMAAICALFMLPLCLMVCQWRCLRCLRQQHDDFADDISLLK

pKi | SMILES
> 5.52 | O=C(OCc1ccccc1-c1cc(COc2ccccc2C(F)(F)F)c(C2=CCNCC2)cc1COc1ccccc1C(F)(F)F)c1ccco1 [Compound 370, Furan-2-carboxylic acid 4′-(1,2,3,6-tetrahydro-pyridin-4-yl)-2′,5′-bis-(2-trifluoromethyl-phenoxymethyl)-biphenyl-2-ylmethyl ester]
4.52 to 5.52 | FC(F)(F)c1ccccc1OCc1cc(C2=CCNCC2)ccc1C1=CCNCC1 [Compound 371, 4-[4-(1,2,3,6-Tetrahydro-pyridin-4-yl)-2-(2-trifluoromethyl-phenoxymethyl)-phenyl]-1,2,5,6-tetrahydro-pyridine]
> 5.52 | Fc1ccccc1-c1ccc(C2=CCNCC2)c(COc2ccccc2C(F)(F)F)c1 [Compound 372, 4-[2′-Fluoro-3-(2-trifluoromethyl-phenoxymethyl)-biphenyl-4-yl]-1,2,3,6-tetrahydro-pyridine]
> 5.52 | FC(F)(F)c1ccccc1OCc1cc(-c2ccccc2Cl)ccc1C1=CCNCC1 [Compound 373, 4-[2′-Chloro-3-(2-trifluoromethyl-phenoxymethyl)-biphenyl-4-yl]-1,2,3,6-tetrahydro-pyridine]
> 5.52 | Cc1ccccc1-c1ccc(C2=CCNCC2)c(COc2ccccc2C(F)(F)F)c1 [Compound 374, 4-[2′-Methyl-3-(2-trifluoromethyl-phenoxymethyl)-biphenyl-4-yl]-1,2,3,6-tetrahydro-pyridine]
> 5.52 | FC(F)(F)c1ccccc1OCc1cc(-c2ccccc2C(F)(F)F)ccc1C1=CCNCC1 [Compound 375, 4-[2′-Trifluoromethyl-3-(2-trifluoromethyl-phenoxymethyl)-biphenyl-4-yl]-1,2,3,6-tetrahydro-pyridine]
4.52 to 5.52 | Nc1ccccc1-c1ccc(C2=CCNCC2)c(COc2ccccc2C(F)(F)F)c1 [Compound 376, 4′-(1,2,3,6-Tetrahydro-pyridin-4-yl)-3′-(2-trifluoromethyl-phenoxymethyl)-biphenyl-2-ylamine]
4.52 to 5.52 | FC(F)(F)c1ccccc1OCc1cc(Br)ccc1C1=CCNCC1 [Compound 377, 4-[4-Bromo-2-(2-trifluoromethyl-phenoxymethyl)-phenyl]-1,2,3,6-tetrahydro-pyridine]
4.52 to 5.52 | OCc1ccccc1-c1ccc(C2=CCNCC2)c(COc2ccccc2C(F)(F)F)c1 [Compound 378, [4′-(1,2,3,6-Tetrahydro-pyridin-4-yl)-3′-(2-trifluoromethyl-phenoxymethyl)-biphenyl-2-yl]-methanol]
> 5.52 | O=C(OCc1ccccc1-c1ccc(C2=CCNCC2)c(COc2ccccc2C(F)(F)F)c1)c1ccccc1 [Compound 379, Benzoic acid 4′-(1,2,3,6-tetrahydro-pyridin-4-yl)-3′-(2-trifluoromethyl-phenoxymethyl)-biphenyl-2-yl methyl ester]
> 5.52 | O=C(OCc1ccccc1-c1ccc(C2=CCNCC2)c(COc2ccccc2C(F)(F)F)c1)c1ccccc1C(F)(F)F [Compound 380, 2-Trifluoromethyl-benzoic acid 4′-(1,2,3,6-tetrahydro-pyridin-4-yl)-3′-(2-trifluoromethyl-phenoxymethyl)-biphenyl-2-ylmethyl ester]
4.52 to 5.52 | COC(=O)c1cc(C2=CCNCC2)c(COc2ccccc2C(F)(F)F)cc1Br [Compound 381, 2-Bromo-5-(1,2,3,6-tetrahydro-pyridin-4-yl)-4-(2-trifluoromethyl-phenoxymethyl)-benzoic acid methyl ester]
4.52 to 5.52 | COC(=O)c1cc(C2=CCNCC2)c(COc2ccccc2C(F)(F)F)cc1C1=CCNCC1 [Compound 382, 2,5-Bis-(1,2,3,6-tetrahydro-pyridin-4-yl)-4-(2-trifluoromethyl-phenoxymethyl)-benzoic acid methyl ester]
4.52 to 5.52 | COC(=O)c1cc(C2=CCNCC2)c(COc2ccccc2C(F)(F)F)cc1-c1ccoc1 [Compound 383, 2-Furan-3-yl-5-(1,2,3,6-tetrahydro-pyridin-4-yl)-4-(2-trifluoromethyl-phenoxymethyl)-benzoic acid methyl ester]
